Values of other authors in patent US20130210878A1, “BENDAMUSTINE COMPOSITIONS AND METHODS THEREFORE” (Innopharma, Inc., priority 2012, published 2013).
Where two headings read alike, the source gives them in different places.

Settings: 0.25 mg/ml in 0.9% sodium chloride

Structure (SMILES): Cl.Cn1c(CCCC(=O)O)nc2cc(N(CCCl)CCCl)ccc21 [Bendamustine HCl, 1H-benzimidazole-2-butanoic acid, 5-[bis(2-chloro-ethyl)amino]-1 methyl-, monohydrochloride]
- time stable (4° C.): 4 days
- time stable (23° C.): 0.38 days
